From patent US10870624B2, “Histone deacetylase inhibitors” (Karus Therapeutics Limited, priority 2013, dated 2020)

Tests used:
Human HDAC1 = target: T1, Human HDAC1 (Homo sapiens, UniProt Q13547); assay: Biochemical HDAC assay with acetylated AMC-labeled peptide substrate, HDAC1; conditions: HDAC1, 2 hours at 30° C.; read-out: IC50 (nM) HDAC 1
T1 construct: full length with C-terminal His-tag and C-terminal FLAG-tag; His-tag (C); FLAG-tag (C); made in house; host or cells: baculovirus expression system (insect cells)
T1 sequence (Q13547 whole entry): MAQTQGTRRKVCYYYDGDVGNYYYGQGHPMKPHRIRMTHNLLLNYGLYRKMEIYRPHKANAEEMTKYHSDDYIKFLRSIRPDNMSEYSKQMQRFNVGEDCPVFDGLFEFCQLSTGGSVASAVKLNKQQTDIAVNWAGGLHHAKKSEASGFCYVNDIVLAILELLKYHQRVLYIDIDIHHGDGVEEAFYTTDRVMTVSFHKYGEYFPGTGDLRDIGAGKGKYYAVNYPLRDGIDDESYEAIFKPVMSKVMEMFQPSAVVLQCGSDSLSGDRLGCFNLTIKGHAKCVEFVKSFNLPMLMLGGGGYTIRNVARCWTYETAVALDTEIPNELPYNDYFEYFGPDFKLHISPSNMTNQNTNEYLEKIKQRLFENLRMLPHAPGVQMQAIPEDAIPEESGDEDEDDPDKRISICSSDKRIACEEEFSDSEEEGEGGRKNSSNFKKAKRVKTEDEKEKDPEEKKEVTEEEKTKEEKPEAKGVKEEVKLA
Method: (§1) Activity against all zinc-dependent HDACs 1 to 11 was assessed by using an acetylated AMC-labeled peptide substrate. The substrate RHKKAc was used for all class I and IIb HDACs; for […], the substrate used was RHKAcKAc. […] All assays were based on the AMC-labeled substrate and developer combination.
(§2) The protocol involved a two-step reaction: first, the substrate with the acetylated lysine side chain is incubated with a sample containing HDAC activity, to produce the deacetylated products, which are then digested in the second step by the addition of developer to produce the fluorescent signal proportional to the amount of deacetylated substrates.
Human HDAC1 (GenBank Accession No. NM_004964), full length with C-terminal His-tag and C-terminal FLAG-tag, MW=56 kDa, expressed in baculovirus expression system.
(§3) Before use, 1 mg/mL BSA and DMSO are added.
(§4) Incubate for 2 hours at 30° C.
(§5) Stage 1: Deacetylation of substrate by incubation of HDAC enzymes with compounds
(§6) Stage 2: Development by addition of Developer to digest the deacetylated substrate, and generate the fluorescent color; Detection: 360/460 Ex/Em

Recombinant human HDAC6 = target: T2, Recombinant human HDAC6 (Homo sapiens, UniProt Q9UBN7); assay: Biochemical HDAC assay with acetylated AMC-labeled peptide substrate, HDAC6; conditions: HDAC6, 2 hours at 30° C.; read-out: IC50 (nM) HDAC 6
T2 construct: full length, MW=180 kDa, was expressed by baculovirus in Sf9 insect cells; GST (N); made in house; host or cells: Sf9 insect cells (baculovirus)
T2 sequence (Q9UBN7 1-1215): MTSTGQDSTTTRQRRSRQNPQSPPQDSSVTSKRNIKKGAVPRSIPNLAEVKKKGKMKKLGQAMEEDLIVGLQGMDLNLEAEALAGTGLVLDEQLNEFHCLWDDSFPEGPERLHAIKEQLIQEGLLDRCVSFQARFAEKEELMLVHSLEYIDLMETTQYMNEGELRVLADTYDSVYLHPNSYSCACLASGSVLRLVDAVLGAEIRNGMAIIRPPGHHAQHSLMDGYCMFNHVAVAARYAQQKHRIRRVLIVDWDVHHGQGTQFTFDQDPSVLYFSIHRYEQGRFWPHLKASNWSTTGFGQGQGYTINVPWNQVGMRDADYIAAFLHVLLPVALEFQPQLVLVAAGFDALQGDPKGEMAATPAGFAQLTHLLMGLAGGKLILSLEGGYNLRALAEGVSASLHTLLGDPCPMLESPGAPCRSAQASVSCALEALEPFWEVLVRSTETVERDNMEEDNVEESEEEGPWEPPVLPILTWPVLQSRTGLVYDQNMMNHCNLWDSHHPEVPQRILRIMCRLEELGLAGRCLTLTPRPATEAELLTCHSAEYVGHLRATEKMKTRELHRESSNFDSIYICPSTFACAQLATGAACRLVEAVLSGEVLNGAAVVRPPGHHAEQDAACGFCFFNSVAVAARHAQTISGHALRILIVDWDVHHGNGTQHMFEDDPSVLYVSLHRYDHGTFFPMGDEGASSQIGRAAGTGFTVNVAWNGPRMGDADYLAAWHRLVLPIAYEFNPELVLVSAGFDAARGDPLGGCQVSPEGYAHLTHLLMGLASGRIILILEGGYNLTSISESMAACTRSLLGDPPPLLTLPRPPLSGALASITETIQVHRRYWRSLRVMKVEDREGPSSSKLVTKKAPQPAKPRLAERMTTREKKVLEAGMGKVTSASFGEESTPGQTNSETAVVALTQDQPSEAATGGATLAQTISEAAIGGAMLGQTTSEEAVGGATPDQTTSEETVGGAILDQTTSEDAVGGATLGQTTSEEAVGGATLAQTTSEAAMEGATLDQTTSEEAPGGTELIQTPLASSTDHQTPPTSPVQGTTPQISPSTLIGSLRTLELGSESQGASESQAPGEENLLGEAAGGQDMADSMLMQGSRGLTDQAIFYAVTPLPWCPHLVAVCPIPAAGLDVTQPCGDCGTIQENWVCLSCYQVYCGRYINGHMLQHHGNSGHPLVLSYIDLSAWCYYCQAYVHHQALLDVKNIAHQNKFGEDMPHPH
Method: as §1, §2
Recombinant human HDAC6 (GenBank Accession No. BC069243), full length, MW=180 kDa, was expressed by baculovirus in Sf9 insect cells using an N-terminal GST tag.
as §3, §4, §5, §6

`O=C(NO)c1ccc(CN(c2ccccn2)c2ccccn2)cc1` [Example A, 4-{[Bis(pyridin-2-yl)amino]methyl}-N-hydroxybenzamide] was tested, and the IC50 (Human HDAC1) was > 10000 nM and the IC50 (Recombinant human HDAC6) was ≤ 500 nM.

`Cc1nsc(N(Cc2ccc(C(=O)NO)c(F)c2)c2nc(C)ns2)n1` [Example B, 4-{[Bis(3-methyl-1,2,4-thiadiazol-5-yl)amino]methyl}-2-fluoro-N-hydroxybenzamide] was tested, and the IC50 (Human HDAC1) was > 10000 nM and the IC50 (Recombinant human HDAC6) was ≤ 500 nM.

In the case of `Cc1noc(N(Cc2ccc(C(=O)NO)c(F)c2)c2nc(C)ns2)n1` [Example C, 2-Fluoro-N-hydroxy-4-{[(3-methyl-1,2,4-oxadiazol-5-yl)(3-methyl-1,2,4-thiadiazol-5-yl)amino]methyl}benzamide], the IC50 (Human HDAC1) is reported as 1000 to 10000 nM and the IC50 (Recombinant human HDAC6) is reported as ≤ 500 nM.

In the case of `Cc1noc(N(Cc2ccc(C(=O)NO)cc2)c2ccccn2)n1` [Example D, N-Hydroxy-4-(((3-methyl-1,2,4-oxadiazol-5-yl)(pyridin-2-yl)amino)methyl)benzamide], the IC50 (Human HDAC1) is reported as 1000 to 10000 nM and the IC50 (Recombinant human HDAC6) is reported as ≤ 500 nM.

In the case of `Cn1ccc(N(Cc2ccc(C(=O)NO)cc2)c2ccccn2)n1` [Example E, N-Hydroxy-4-(((1-methyl-1H-pyrazol-3-yl)(pyridin-2-yl)amino)methyl)benzamide], the IC50 (Human HDAC1) is reported as 1000 to 10000 nM and the IC50 (Recombinant human HDAC6) is reported as ≤ 500 nM.

With `O=C(NO)c1ccc(CN(c2ccccn2)c2nncs2)cc1` [Example F, N-Hydroxy-4-((pyridin-2-yl(1,3,4-thiadiazol-2-yl)amino)methyl)benzamide] the IC50 (Human HDAC1) was > 10000 nM and the IC50 (Recombinant human HDAC6) was ≤ 500 nM.

With `O=C(NO)c1ccc(CN(c2ccccn2)c2cnccn2)cc1` [Example G, N-Hydroxy-4-((pyrazin-2-yl(pyridin-2-yl)amino)methyl)benzamide] the IC50 (Human HDAC1) was > 10000 nM and the IC50 (Recombinant human HDAC6) was ≤ 500 nM.
